Source: patent US20220213198A1, “METHOD OF TREATMENT” (The Council of the Queensland Institute of Medical Research, priority 2019, published 2022)

B1: 8F2.F9: anti-MR1 blocking antibody from hybridoma clone 8F2.F9, IgG1 isotype; heavy chain SEQ ID NO: 14, light chain SEQ ID NO: 18 (antibody, listed as Mus musculus, V domains shown)
VH: MKFSWVIFFLMAVVTGVNSEVQLQQSVAELVRPGASVKLSCTASGFNIKNTYMHWVKKRPELGLEWIGRIDPANGNTNFAPKFQGKATITADTSSNTAYLQLSSLTSEDTAIYYCPRGSGNYYFDYWGQGTTLTVSS
VL: MSSAQFLGLLLLCFQGTRCDIQMTQTTSSLSASLGDRVTISCRASQDISNYLNWYQQKPDGPVKLLIYYTSRLHSGVPSRFSGSGSGTDYSLTINNLAQEDIATYFCQQGNTLPYTFGGGTKLEIK

Legend:
LWT1 melanoma cells = assay: LWT1 experimental lung metastasis model; format: in vivo, mouse; details: day 14
Method: FIG. 2. Up-regulation of MR1 on B16F10 cells increases lung metastases that is dependent on MAIT cells. (A) The schematic and timeline of expanding MAIT cells from splenocytes derived from C57BL/6 WT mice with IL-2 and 5-OP-RU, for sorting and adoptive transfer into tumor-bearing mice. (B, C) Groups of WT or MR1^−/− or Rag2cγ^−/− mice (n=5-6/group) were injected i.v. with (B) 1×10^5 or (C) 1×10^4 B16F10 melanoma cells. In some groups, sorted MAIT or T conventional cells (cT) (non-MAIT αβ^+ T cells) (2×10^5 cells/mouse) from C57BL/6 (B) WT or (C) TCRδ^−/− mice were i.v. injected into the indicated groups of mice one day before tumor inoculation. (C) One group of mice received i.v injection of media alone as a control. (B, C) On day 14 relative to tumor cell inoculation, lungs were harvested and the metastatic burden was quantified by counting colonies on the lung surface. Data presented as mean±SEM. (D) B16F10 or LWT1 melanoma cells were stimulated in vitro with DMSO or 5-OP-RU (100 nM) for 4 hours before cell surface MR1 expression was determined by flow cytometry. […] Fourteen days later relative to tumor cell inoculation, lungs were harvested and the metastatic burden was quantified by counting colonies on the lung surface. […] Significant differences between groups as indicated by crossbars were determined using a one-way ANOVA followed by Tukey's post-hoc test (B, E, F), *p<0.05, **p<0.01, ****p<0.0001
FIG. 6. […] (A-D) On day 14, lungs were harvested and the metastatic burden was quantified by counting colonies on the lung surface. […] (E, F), Mice were monitored for tumor growth (calculated by the product of 2 perpendicular axes). […] Significant differences between groups as indicated by crossbars were determined by a one-way ANOVA followed by Tukey's post-hoc test (A, B) or a Mann-Whitney test (C, […]), *p<0.05, **p<0.01, ***p<0.001.
The indicated numbers of B16F10 and LWT1 cells were injected intravenously (i.v.) into the tail vein of WT or gene-targeted mice. […] Lungs were harvested on day 14, and surface tumor nodules were counted under a dissection microscope. […]

MR1 / MAIT cells = details: cited from earlier work

| Molecule | number of lung metastases (LWT1 melanoma cells; MR1-/- mice i.v. injected with pre-treated LWT1, vs DMSO-treated) | number of lung metastases (LWT1 melanoma cells; WT mice i.v. injected with LWT1 pre-treated 100 nM 4 h, vs DMSO-treated) | effect on MAIT cell activation (MR1 / MAIT cells; background statement) | LWT1 lung metastases (LWT1 melanoma cells; 250 μg/mouse i.p. days -1, 0 and 3, vs cIg) | blocking of MAIT cell interaction with MR1 (MR1 / MAIT cells; stated as known) |
| --- | --- | --- | --- | --- | --- |
| CC(=O)C=Nc1c(NC[C@H](O)[C@H](O)[C@H](O)CO)[nH]c(=O)[nH]c1=O [5-OP-RU] | this increase was lost | significantly increased | one of the most potent stimulatory MAIT cell antigens |  |  |
| B1 |  |  |  | significantly reduced | block MAIT cells from interacting with MR1 |
